How the values were obtained:
GRK5 = target: T1, GRK5 (Homo sapiens, UniProt P34947); assay: Lance Kinase Activity Assay, GRK5; details: biochemical Lance kinase activity assay; class symbols A-F; read-out: GRK5 LANCE Assay (IC-50)
T1 construct: purchased Thermo Scientific
How it was run: (§1)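 IC50s from sigmoidal dose-response over 0.0025-10 μM compound, with phosphorylated ULight substrate detected by Eu anti-phospho antibody FRET after EDTA quench.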

GRK2 = target: T2, GRK2 (Homo sapiens, UniProt P25098); assay: Lance Kinase Activity Assay, GRK2; details: biochemical Lance kinase activity assay; class symbols A-F; read-out: GRK2 LANCE Assay (IC-50)
T2 construct: purchased Thermo Scientific
T2 sequence (P25098 1-689): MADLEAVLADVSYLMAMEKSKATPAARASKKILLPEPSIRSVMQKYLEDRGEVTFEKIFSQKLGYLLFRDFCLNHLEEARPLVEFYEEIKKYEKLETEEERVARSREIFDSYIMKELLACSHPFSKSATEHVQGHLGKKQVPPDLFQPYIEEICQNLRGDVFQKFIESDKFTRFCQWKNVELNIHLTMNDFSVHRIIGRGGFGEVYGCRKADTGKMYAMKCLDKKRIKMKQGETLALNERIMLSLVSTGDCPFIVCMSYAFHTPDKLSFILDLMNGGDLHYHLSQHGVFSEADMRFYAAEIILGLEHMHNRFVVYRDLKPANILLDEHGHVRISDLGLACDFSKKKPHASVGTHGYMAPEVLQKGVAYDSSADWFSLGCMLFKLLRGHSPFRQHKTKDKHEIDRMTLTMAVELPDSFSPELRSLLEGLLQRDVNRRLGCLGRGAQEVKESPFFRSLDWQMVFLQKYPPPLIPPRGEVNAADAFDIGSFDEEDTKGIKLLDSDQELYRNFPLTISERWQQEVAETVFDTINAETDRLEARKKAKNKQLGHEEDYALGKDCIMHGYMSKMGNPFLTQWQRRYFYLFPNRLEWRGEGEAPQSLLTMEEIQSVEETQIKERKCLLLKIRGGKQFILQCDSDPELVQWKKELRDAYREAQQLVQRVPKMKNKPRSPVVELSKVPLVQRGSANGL
How it was run: as §1

T1 sequence (P34947 whole entry): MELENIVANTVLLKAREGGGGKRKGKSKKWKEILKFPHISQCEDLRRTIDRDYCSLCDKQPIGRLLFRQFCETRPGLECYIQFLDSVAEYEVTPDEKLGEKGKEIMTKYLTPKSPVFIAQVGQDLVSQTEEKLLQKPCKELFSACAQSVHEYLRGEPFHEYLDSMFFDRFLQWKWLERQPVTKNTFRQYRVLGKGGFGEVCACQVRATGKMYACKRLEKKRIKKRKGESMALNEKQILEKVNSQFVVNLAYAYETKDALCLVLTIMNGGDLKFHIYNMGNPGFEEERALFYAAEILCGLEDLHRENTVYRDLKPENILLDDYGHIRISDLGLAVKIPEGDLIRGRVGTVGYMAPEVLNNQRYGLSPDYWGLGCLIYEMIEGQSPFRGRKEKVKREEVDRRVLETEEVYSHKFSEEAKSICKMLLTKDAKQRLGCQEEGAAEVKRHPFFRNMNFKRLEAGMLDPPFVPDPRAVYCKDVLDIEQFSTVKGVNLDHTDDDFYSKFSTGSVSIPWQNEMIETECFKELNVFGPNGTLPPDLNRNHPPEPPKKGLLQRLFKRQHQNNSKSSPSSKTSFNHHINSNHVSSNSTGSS

Row | SMILES | IC50 (GRK5) | IC50 (GRK2)
1 | COc1ccc([C@@H](C)NC(=O)/C(C#N)=C/c2c[nH]c3ncc(-c4cn(C)cn4)cc23)cc1OC [Example 166, (R,E)-2-cyano-N-(1-(3,4-dimethoxyphenyl)ethyl)-3-(5-(1-methyl-1H-imidazol-4-yl)-1H-pyrrolo[2,3-b]pyridin-3-yl)acrylamide] | ≤ 50 nM | 1000 to 10000 nM
2 | COc1ccc([C@@H](C)NC(=O)/C=C/c2c[nH]c3ncc(OCCN(C)C)cc23)cc1OC [Example 56, (R,E)-N-(1-(3,4-dimethoxyphenyl)ethyl)-3-(5-(2-(dimethylamino)ethoxy)-1H-pyrrolo[2,3-b]pyridin-3-yl)acrylamide] | 50 to 100 nM | > 10000 nM
3 | COc1ccc([C@@H](C)NC(=O)/C=C/c2c[nH]c3ncc(-c4cc(F)cc(F)c4)cc23)cc1OC [Example 115, (R,E)-3-(5-(3,5-difluorophenyl)-1H-pyrrolo[2,3-b]pyridin-3-yl)-N-(1-(3,4-dimethoxyphenyl)ethyl)acrylamide] | 100 to 500 nM | > 10000 nM
4 | COc1ccc([C@@H](C)NC(=O)/C(C#N)=C/c2c[nH]c3ncc(C4=CCCC4)cc23)cc1OC [Example 158, (R,E)-2-cyano-3-(5-(cyclopent-1-en-1-yl)-1H-pyrrolo[2,3-b]pyridin-3-yl)-N-(1-(3,4-dimethoxyphenyl)ethyl)acrylamide] | ≤ 50 nM | > 10000 nM
5 | COc1ccc([C@@H](C)NC(=O)/C(C#N)=C/c2c[nH]c3ncc(-c4ccc(OCCN(C)C)cc4)cc23)cc1OC [Example 154] | ≤ 50 nM | 500 to 1000 nM
6 | COc1ccc([C@@H](C)NC(=O)/C(C#N)=C/c2c[nH]c3ncc(-c4cncnc4)cc23)cc1OC [Example 120, (R,E)-2-cyano-N-(1-(3,4-dimethoxyphenyl)ethyl)-3-(5-(pyrimidin-5-yl)-1H-pyrrolo[2,3-b]pyridin-3-yl)acrylamide] | 50 to 100 nM | 1000 to 10000 nM
7 | COc1ccc([C@@H](C)NC(=O)/C=C/c2c[nH]c3nccc(-c4ccc(OCCCN(C)C)cc4)c23)cc1OC [Example 241, (R,E)-N-(1-(3,4-dimethoxyphenyl)ethyl)-3-(4-(4-(3-(dimethylamino)propoxy)phenyl)-1H-pyrrolo[2,3-b]pyridin-3-yl)acrylamide] | 50 to 100 nM | 1000 to 10000 nM
8 | COc1ccc([C@@H](C)NC(=O)/C(C#N)=C/c2c[nH]c3ncc(-c4cnn5ccccc45)cc23)cc1OC [Example 167] | ≤ 50 nM | 1000 to 10000 nM
9 | COc1ccc([C@@H](C)NC(=O)/C=C/c2c[nH]c3ncc(-c4cnn(C5COC5)c4)cc23)cc1OC [Example 215, (R,E)-N-(1-(3,4-dimethoxyphenyl)ethyl)-3-(5-(1-(oxetan-3-yl)-1H-pyrazol-4-yl)-1H-pyrrolo[2,3-b]pyridin-3-yl)acrylamide] | ≤ 50 nM | 1000 to 10000 nM
10 | C[C@@H](NC(=O)/C=C/c1c[nH]c2ncc(-c3cnn(C)c3)cc12)c1ccc2c(c1)OCO2 [Example 246, (R,E)-N-(1-(benzo[d][1,3]dioxol-5-yl)ethyl)-3-(5-(1-methyl-1H-pyrazol-4-yl)-1H-pyrrolo[2,3-b]pyridin-3-yl)acrylamide] | ≤ 50 nM | 1000 to 10000 nM
11 | COc1ccc([C@@H](C)NC(=O)/C(C#N)=C/c2c[nH]c3ncc(-c4cnn(CCN5CCOCC5)c4)cc23)cc1OC [Example 160] | ≤ 50 nM | 1000 to 10000 nM
12 | CC(=O)Nc1cccc(CNC(=O)/C(C#N)=C/c2c[nH]c3ncccc23)c1 [Example 34, (E)-N-(3-acetamidobenzyl)-2-cyano-3-(1H-pyrrolo[2,3-b]pyridin-3-yl)acrylamide] | 100 to 500 nM | ≤ 50 nM
13 | CC(NC(=O)/C(C#N)=C/c1c[nH]c2ncccc12)c1ccc(F)cc1 (stereo not drawn) [Example 63, (E)-2-cyano-N-(1-(4-fluorophenyl)ethyl)-3-(1H-pyrrolo[2,3-b]pyridin-3-yl)acrylamide] | 100 to 500 nM | 100 to 500 nM
14 | COc1ccc([C@@H](C)NC(=O)/C=C/c2c[nH]c3ncc(-c4cccc(S(C)(=O)=O)c4)cc23)cc1OC [Example 114, (R,E)-N-(1-(3,4-dimethoxyphenyl)ethyl)-3-(5-(3-(methylsulfonyl)phenyl)-1H-pyrrolo[2,3-b]pyridin-3-yl)acrylamide] | ≤ 50 nM | 1000 to 10000 nM
15 | CN(C)c1ccc(CNC(=O)/C(C#N)=C/c2c[nH]c3ncccc23)cc1 [Example 24, (E)-2-cyano-N-(4-(dimethylamino)benzyl)-3-(1H-pyrrolo[2,3-b]pyridin-3-yl)acrylamide] | 1000 to 10000 nM | > 10000 nM
16 | COc1ccc([C@@H](C)NC(=O)/C(C#N)=C/c2c[nH]c3ncc(-c4cn[nH]c4)cc23)cc1OC [Example 163] | ≤ 50 nM | 1000 to 10000 nM

Next, values leading:

Row | IC50 (GRK5) | IC50 (GRK2) | SMILES
17 | 100 to 500 nM | 1000 to 10000 nM | CS(=O)(=O)c1ccccc1CNC(=O)/C(C#N)=C/c1c[nH]c2ncccc12 [Example 39, (E)-2-cyano-N-(2-(methylsulfonyl)benzyl)-3-(1H-pyrrolo[2,3-b]pyridin-3-yl)acrylamide]
18 | 100 to 500 nM | 1000 to 10000 nM | COc1ccc([C@@H](C)NC(=O)/C=C/c2c[nH]c3nccc(-c4ccc(CN5CCN(C)CC5)cc4)c23)cc1OC [Example 234, (R,E)-N-(1-(3,4-dimethoxyphenyl)ethyl)-3-(4-(4-((4-methylpiperazin-1-yl)methyl)phenyl)-1H-pyrrolo[2,3-b]pyridin-3-yl)acrylamide]
19 | ≤ 50 nM | 1000 to 10000 nM | COc1ccc([C@@H](C)NC(=O)/C=C/c2c[nH]c3ncc(-c4ccnc(S(C)(=O)=O)c4)cc23)cc1OC [Example 250, (R,E)-N-(1-(3,4-dimethoxyphenyl)ethyl)-3-(5-(2-(methylsulfonyl)pyridin-4-yl)-1H-pyrrolo[2,3-b]pyridin-3-yl)acrylamide]
20 | ≤ 50 nM | > 10000 nM | COc1ccc([C@@H](C)NC(=O)/C=C/c2c[nH]c3ncc(-c4cccc(N(C)C)c4)cc23)cc1OC [Example 195, (R,E)-N-(1-(3,4-dimethoxyphenyl)ethyl)-3-(5-(3-(dimethylamino)phenyl)-1H-pyrrolo[2,3-b]pyridin-3-yl)acrylamide]
21 | ≤ 50 nM | 100 to 500 nM | C[C@@H](NC(=O)/C=C/c1c[nH]c2ncc(-c3cnn(C)c3)cc12)c1ccc(F)c(F)c1 [Example 257, (R,E)-N-(1-(3,4-difluorophenyl)ethyl)-3-(5-(1-methyl-1H-pyrazol-4-yl)-1H-pyrrolo[2,3-b]pyridin-3-yl)acrylamide]
22 | 50 to 100 nM | > 10000 nM | COc1ccc([C@@H](C)NC(=O)/C=C/c2c[nH]c3nccc(-c4ccc(N5CCN(C(C)=O)CC5)cc4)c23)cc1OC [Example 235, (R,E)-3-(4-(4-(4-acetylpiperazin-1-yl)phenyl)-1H-pyrrolo[2,3-b]pyridin-3-yl)-N-(1-(3,4-dimethoxyphenyl)ethyl)acrylamide]
23 | ≤ 50 nM | 1000 to 10000 nM | COc1ccc([C@@H](C)NC(=O)/C(C#N)=C/c2c[nH]c3ncc(-c4cccc(CN5CCN(C(C)=O)CC5)c4)cc23)cc1OC [Example 141, (R,E)-3-(5-(3-((4-acetylpiperazin-1-yl)methyl)phenyl)-1H-pyrrolo[2,3-b]pyridin-3-yl)-2-cyano-N-(1-(3,4-dimethoxyphenyl)ethyl)acrylamide]
24 | 100 to 500 nM | > 10000 nM | COc1ccc([C@@H](C)NC(=O)/C=C/c2c[nH]c3nccc(-c4cnn(C)c4)c23)cc1OC [Example 238, (R,E)-N-(1-(3,4-dimethoxyphenyl)ethyl)-3-(4-(1-methyl-1H-pyrazol-4-yl)-1H-pyrrolo[2,3-b]pyridin-3-yl)acrylamide]
